Entries after “also recorded” stand apart in the source; their conditions may differ. Like-named read-outs stand apart in the source and are kept apart here. Marks after values point to notes of the source that are not given here.
Assays:
[1] = biological target: T1, D3R (Homo sapiens, UniProt P35462); design: method as in PMID 24061855, PMID 19331412; conditions: R22 analogues, linker length; cited from earlier work
[2] = biological target: T2, D1R (Homo sapiens, UniProt P21728); assay: HTRF competitive binding screening (NDF) at D1R carrier cells; conditions: 10 µM, n = 4, fluorescence decrease normalized to the control
Procedure: (§1) All HTRF assays were performed using an HTRF-compatible plate reader (model Tecan Spark (Tecan Group, Männedorf, Switzerland)). The respective settings were specifically modified and optimized for the determination of D2R ligand-binding affinities. Binding affinities were determined using the same settings for measurements with D1R and D3R carrier cells. […] Fluorophores were excited at 320 nm. A dichroic 510 mirror was used, while lag and integration times of 100 and 400 µs were applied, respectively. Flashes were set to 75. Electronic gain was automatically optimized, while the z-position was optimized based on the well with the highest expected signal. […] The first plate was used to determine the gain and the z-position. Subsequently, the determined values were set manually for the second plate to enable direct comparison between the different plates.
(§2) The cells used for the subsequent screening and detailed investigation of D1R and D3R ligands were acquired from PerkinElmer/cisbio (Waltham, MA, USA; Tag-lite Dopamine D1 or D3a-labeled Cells, ready-to-use (transformed and labeled), 200 tests; C1TT1D1 and C1TT1D3A, respectively). The cells were stored in liquid nitrogen until further use. Fluorescent-labelled ligands (Dopamine D2 Receptor red antagonist Fluorescent Ligand (L0002RED), stored at −20 °C and Dopamine D1 Receptor green antagonist (L0031GRE), stored at −20 °C), assay buffer (5Xconcentrate Tag-lite Buffer (TLB), 100 mL, stored at +4 °C; LABMED), and 96-well plates (HTRF 96-well low-volume white plate; 66PL96005) required for the in vitro assay were also acquired from PerkinElmer/cisbio. The assay was conducted according to the standard operation protocol (SOP) available from PerkinElmer/cisbio. The 96-well plates were incubated at room temperature for 2 h. The 96-well plates were read as described in Section 2.10. The respective concentrations of the dilution series were performed in triplicates. In total, Kd determination was performed twice.
(§3) The investigated compounds were taken from a previous pharmacophore-based virtual screening study described in Zell et al.. The activities of all compounds were investigated via a competitive binding (in comparison with a fluorescence-labeled ligand) of the respective compounds at D1R/D3R, utilizing an HTRF assay using a screening concentration of 10 µM.

[3] = biological target: T1, D3R; assay: HTRF competitive binding screening (NDF) at D3R carrier cells; conditions: 10 µM, n = 4, fluorescence decrease normalized to the control
Procedure: as §1, §2, §3

[4] = biological target: T3, D2R (Homo sapiens, UniProt P14416); conditions: 10 µM, n = 4, normalized to the control; cited from earlier work
T3 construct: expressed in transfected cells; host or cells: D2R carrier cells (not described here)

[5] = biological target: T2, D1R; assay: HTRF Ki determination at D1R; assay type: binding; conditions: n = 6, ± SD; n.d. = not determinable (highest concentration 100 µM)
Procedure: as §1, §2
(§4) The Ki was determined in duplicates following the SOP available from PerkinElmer/cisbio and as described in Section 2.10.
(§5) Saturation binding curves were processed and visualized in GraphPad Prism 8 (Nonlinear regression (curve fit), One site—Fit logIC50 was performed using GraphPad Prism version 8.2.1 for Windows, GraphPad Software, San Diego. CA, USA). Molecular docking was performed in GOLD 5.8.0 (CCDC, Cambridge, United Kingdom). […] Two-dimensional structures of all shown compounds were generated using ChemDraw version 19.0 (PerkinElmer, Waltham, MA, USA).

[6] = biological target: T3, D2R; assay: HTRF Ki determination at D2R; assay type: binding; conditions: for Selectivity D1R/D2R (Ki fold-difference): Ki assumed ≥100 µM where n.d.
Procedure: as §1
The characterization of the D2R carrier cells is detailed in [42].
as §4, §5

[7] = biological target: T1, D3R; assay: HTRF Ki determination at D3R; assay type: binding; conditions: for Selectivity D1R/D3R (Ki fold-difference) / Selectivity D2R/D3R (Ki fold-difference): Ki assumed ≥100 µM where n.d.
Procedure: as §1
The cells used for the subsequent screening and detailed investigation of D1R and D3R ligands were acquired from PerkinElmer/cisbio (Waltham, MA, USA; Tag-lite Dopamine D1 or D3a-labeled Cells, ready-to-use (transformed and labeled), 200 tests; C1TT1D1 and C1TT1D3A, respectively). The cells were stored in liquid nitrogen until further use. […] The assay was conducted according to the standard operation protocol (SOP) available from PerkinElmer/cisbio. The 96-well plates were incubated at room temperature for 2 h. The 96-well plates were read as described in Section 2.10. The respective concentrations of the dilution series were performed in triplicates. In total, Kd determination was performed twice.
as §4, §5

[8] = biological target: T3, D2R; design: method as in PMID 35889317; conditions: n = 6, ± SD; values from previous experiments; cited from earlier work
[9] = biological target: D1R; conditions: radio-ligand binding, cited from earlier work
[10] = biological target: D2R; conditions: radio-ligand binding, cited from earlier work
[11] = biological target: D3R; conditions: radio-ligand binding, cited from earlier work
[12] = n = 6, ± SD, n.d. = not determinable (highest concentration 100 µM)
[13] = Table S3 D2like-selective dataset, ref ChEMBL [56,69,72-106]
[14] = Table S4 D3R-selective dataset, ref ChEMBL [53,56,62-118]

T1 sequence (P35462 whole entry): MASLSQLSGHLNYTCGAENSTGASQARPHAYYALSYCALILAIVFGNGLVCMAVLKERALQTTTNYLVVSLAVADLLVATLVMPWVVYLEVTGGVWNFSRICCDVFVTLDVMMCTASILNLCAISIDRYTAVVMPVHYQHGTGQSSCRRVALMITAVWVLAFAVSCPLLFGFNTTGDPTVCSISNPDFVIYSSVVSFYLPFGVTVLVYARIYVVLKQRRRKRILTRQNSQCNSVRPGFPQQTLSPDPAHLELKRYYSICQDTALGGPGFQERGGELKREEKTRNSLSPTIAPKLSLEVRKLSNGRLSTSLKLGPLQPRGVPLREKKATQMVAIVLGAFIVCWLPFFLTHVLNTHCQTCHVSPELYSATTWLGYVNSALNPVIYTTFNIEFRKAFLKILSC
T2 sequence (P21728 whole entry): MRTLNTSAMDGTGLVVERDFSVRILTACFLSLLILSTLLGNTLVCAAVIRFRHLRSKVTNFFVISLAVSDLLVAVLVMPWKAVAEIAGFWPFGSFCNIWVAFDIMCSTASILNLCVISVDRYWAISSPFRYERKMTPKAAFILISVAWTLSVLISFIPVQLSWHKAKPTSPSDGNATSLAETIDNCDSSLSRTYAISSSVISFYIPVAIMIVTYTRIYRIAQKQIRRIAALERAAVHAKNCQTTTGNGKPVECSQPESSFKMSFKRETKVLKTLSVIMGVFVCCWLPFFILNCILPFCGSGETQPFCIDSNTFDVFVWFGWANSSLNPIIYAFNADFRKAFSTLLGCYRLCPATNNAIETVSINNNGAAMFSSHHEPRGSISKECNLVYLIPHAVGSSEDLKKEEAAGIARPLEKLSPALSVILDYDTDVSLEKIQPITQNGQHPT
T3 sequence (P14416 whole entry): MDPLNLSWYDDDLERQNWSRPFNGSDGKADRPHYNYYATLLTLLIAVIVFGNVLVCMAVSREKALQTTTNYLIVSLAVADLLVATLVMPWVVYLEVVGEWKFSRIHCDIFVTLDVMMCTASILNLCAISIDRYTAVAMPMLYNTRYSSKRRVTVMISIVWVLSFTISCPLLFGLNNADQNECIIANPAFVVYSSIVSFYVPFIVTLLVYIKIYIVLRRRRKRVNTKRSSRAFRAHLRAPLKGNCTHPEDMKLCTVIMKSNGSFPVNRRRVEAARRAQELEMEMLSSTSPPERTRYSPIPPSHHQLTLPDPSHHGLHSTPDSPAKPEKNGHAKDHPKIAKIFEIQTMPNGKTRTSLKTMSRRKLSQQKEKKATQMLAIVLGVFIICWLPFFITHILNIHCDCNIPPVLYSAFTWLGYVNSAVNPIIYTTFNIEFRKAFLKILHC

Row | Compound | Normalized Decrease in Fluorescence (NDF) ± SD, D1R [2] | Normalized Decrease in Fluorescence (NDF) ± SD, D3R [3] | Normalized Decrease in Fluorescence (NDF) ± SD, D2R [4] | Ki [5] | Selectivity D1R/D2R (Ki fold-difference) [6] | Selectivity D1R/D3R (Ki fold-difference) [7] | Selectivity D2R/D3R (Ki fold-difference) [7] | Ki ([7]; n = 6, ± SD) | Ki [8] | also measured
1 | O=C(NCCCCN1CCN(c2cccc(Cl)c2Cl)CC1)c1cc2ccccc2[nH]1 [C4 analogue] | – | – | – | – | – | – | – | – | – | D2R/D3R-selectivity fold-difference [1]: 45.7
2 | CN1CCc2cccc3c2[C@H]1Cc1ccc(O)c(O)c1-3 [Compound 1, apomorphine, reference compound] | 3.47 ± 1.04 | 3.82 ± 1.32 | 9.44 ± 5.97 | – | – | – | – | – | – | –
3 | CN1CCN(C2Cc3ccc(O)cc3Sc3ccc(Cl)cc32)CC1 (centres unmarked) [Compound 2] | 5.46 ± 1.97 | 4.16 ± 1.08 | 40.41 ± 1.39 | 0.009 ± 0.002 µM | 1.95 | 3.23 | 1.66 | 0.003 ± 0.001 µM | 0.005 ± 0.002 µM | –
4 | NS(=O)(=O)c1ccc(CCNCc2ccc(-c3cc(Cl)ccc3Cl)o2)cc1 [Compound 3] | 1.78 ± 1.35 | 3.96 ± 1.10 | 3.99 ± 2.58 | – | >21.4 ^b | – | 12.2 | 0.38 ± 0.022 µM | 4.66 ± 2.69 µM | Ki D1R [5]: inactive
5 | Oc1cccc(C(O)CNCc2cccc(Cl)c2Cl)c1 (centres unmarked) [Compound 4] | 0.90 ± 0.31 | 2.75 ± 0.61 | 0.90 ± 0.39 | – | – | >27.2 ^b | >27.2 ^b | 3.68 ± 0.94 µM | – | Ki D1R [5]: inactive; also recorded: no determinable binding affinity; also recorded: no determinable binding affinities; Ki D2R [6, 12]: inactive; also recorded: no determinable binding affinity; also recorded: no determinable binding affinities
6 | CCN(CCC(=O)Nc1cccc(OC)c1)Cc1ccccc1 [Compound 5] | 1.26 ± 0.64 | 2.65 ± 0.64 | 15.74 ± 18.15 | 46.9 ± 27.4 µM | 4.28 | 20.8 | 4.86 | 2.25 ± 0.91 µM | 11 ± 4.43 µM | –
7 | O=C(CCN1CCN(c2ccccc2F)CC1)Nc1cccc(F)c1 [Compound 6] | 2.15 ± 1.16 | 4.21 ± 0.79 | 8.18 ± 3.62 | 7.76 ± 4.41 µM | 5.77 | 20.7 | 3.56 | 0.37 ± 0.28 µM | 1.35 ± 0.63 µM | –
8 | O[C@H](CNCCNc1ccc(C(F)(F)F)cn1)CSc1ccc(F)cc1 [Compound 7] | 1.57 ± 0.54 | 3.79 ± 0.70 | 10.85 ± 4.93 | 8.33 ± 2.17 µM | 3.00 | 12.3 | 4.11 | 0.68 ± 0.068 µM | 2.78 ± 1.06 µM | –
9 | COc1cc(CC[C@H](C)NCc2ccccc2)ccc1O [Compound 8] | 1.20 ± 0.59 | 2.63 ± 0.52 | 1.10 ± 0.52 | – | – | >43.1 ^b | >43.1 ^b | 2.32 ± 0.92 µM | – | Ki D1R [5]: inactive; also recorded: no determinable binding affinity; also recorded: no determinable binding affinities; Ki D2R [6, 12]: inactive; also recorded: no determinable binding affinity; also recorded: no determinable binding affinities
10 | NC(=O)c1ccccc1OCCCN1CCN(c2ccccc2)CC1 [Compound 9] | 1.71 ± 0.86 | 3.97 ± 0.78 | 22.08 ± 6.62 | 9.46 ± 1.18 µM | 28.6 | 395.1 | 13.8 | 0.024 ± 0.003 µM | 0.33 ± 0.093 µM | –
11 | COc1ccccc1N1CCN(CCCCNC(=O)c2ccc(Cl)cc2)CC1 [Compound 10] | 2.59 ± 1.04 | 4.09 ± 1.07 | 22.89 ± 8.41 | 2.38 ± 0.13 µM | 3.91 | 1031.4 | 263.7 | 0.002 ± 0.001 µM | – | Ki [6, 12]: 0.61 ± 0.085 µM; Ki [7]: 0.0023 µM
12 | SC79 | – | – | – | – | – | – | – | – | – | Ki [9, 13]: 10 µM; Ki [10, 13]: 0.622 µM; Ki [11, 13]: 0.00611 µM
13 | SC144 | – | – | – | – | – | – | – | – | – | Ki [9, 13]: 1.3 µM; Ki [10, 13]: 0.038 µM; Ki [11, 13]: 0.003 µM
14 | SC236 | – | – | – | – | – | – | – | – | – | Ki [9, 14]: 1.27 µM; Ki [10, 14]: 2.32 µM; Ki [11, 14]: 0.214 µM

From paper PMC10216180, “Dopamine Receptor Ligand Selectivity—An In Silico/In Vitro Insight” (Biomedicines, 2023)
